Results published in PubChem BioAssay (NCI).
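Assay format: 96-well plates, 48-hour exposure. GI50 is the concentration that inhibits growth by half. TGI marks complete inhibition of growth.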

Tests used:
Assay in all cases: growth of human tumour cells (NCI), 48 h; in the data active means GI50 below about 0.43 µM; inactive means the rest
SN12C renal = test system: SN12C renal
LOX IMVI melanoma = test system: LOX IMVI melanoma
NCI-H460 lung = test system: NCI-H460 lung
EKVX NSCLC = test system: EKVX NSCLC
SK-OV-3 ovarian = test system: SK-OV-3 ovarian
NCI/ADR-RES ovarian = test system: NCI/ADR-RES ovarian
MOLT-4 leukemia = test system: MOLT-4 leukemia
U251 CNS = test system: U251 CNS
T-47D breast = test system: T-47D breast
HL-60(TB) leukemia = test system: HL-60(TB) leukemia
NCI-H23 lung = test system: NCI-H23 lung
IGROV1 ovarian = test system: IGROV1 ovarian
KM12 colon = test system: KM12 colon
SK-MEL-5 melanoma = test system: SK-MEL-5 melanoma
SR leukemia = test system: SR leukemia
SF-295 CNS = test system: SF-295 CNS
SW-620 colon = test system: SW-620 colon
TK-10 renal = test system: TK-10 renal
DU-145 prostate = test system: DU-145 prostate
SK-MEL-28 melanoma = test system: SK-MEL-28 melanoma
HT29 colon = test system: HT29 colon
NCI-H522 lung = test system: NCI-H522 lung
SK-MEL-2 melanoma = test system: SK-MEL-2 melanoma
PC-3 prostate = test system: PC-3 prostate
A549 NSCLC = test system: A549 NSCLC
UACC-257 melanoma = test system: UACC-257 melanoma
BT-549 breast = test system: BT-549 breast
HCC-2998 colon = test system: HCC-2998 colon
CCRF-CEM leukemia = test system: CCRF-CEM leukemia
SF-539 CNS = test system: SF-539 CNS
HCT-15 colon = test system: HCT-15 colon
SF-268 CNS = test system: SF-268 CNS
A498 renal = test system: A498 renal
RPMI-8226 leukemia = test system: RPMI-8226 leukemia
OVCAR-4 ovarian = test system: OVCAR-4 ovarian
SNB-19 CNS = test system: SNB-19 CNS
OVCAR-8 ovarian = test system: OVCAR-8 ovarian

COC(=O)c1cc2c3c(cc(O)c2[nH]1)N(C(=O)C1Cc2cc(OC)c(OC)c(OC)c2N1)CC3CCl (centres undefined)
active: GI50 (SN12C renal) < 10 nM | GI50 (LOX IMVI melanoma) < 10 nM | GI50 (NCI-H460 lung) < 10 nM | GI50 (EKVX NSCLC) < 10 nM | GI50 (SK-OV-3 ovarian) < 10 nM | GI50 (NCI/ADR-RES ovarian) < 10 nM | GI50 (MOLT-4 leukemia) < 10 nM | GI50 (U251 CNS) < 10 nM | GI50 (T-47D breast) < 10 nM | GI50 (HL-60(TB) leukemia) < 10 nM | GI50 (NCI-H23 lung) < 10 nM | GI50 (IGROV1 ovarian) < 10 nM | GI50 (KM12 colon) < 10 nM | GI50 (SK-MEL-5 melanoma) < 10 nM | GI50 (SR leukemia) < 10 nM | GI50 (SF-295 CNS) < 10 nM | GI50 (SW-620 colon) < 10 nM | GI50 (TK-10 renal) < 10 nM | GI50 (DU-145 prostate) < 10 nM | GI50 (SK-MEL-28 melanoma) < 10 nM | GI50 (HT29 colon) < 10 nM | GI50 (NCI-H522 lung) < 10 nM | GI50 (SK-MEL-2 melanoma) < 10 nM | GI50 (PC-3 prostate) < 10 nM | GI50 (A549 NSCLC) < 10 nM | GI50 (UACC-257 melanoma) < 10 nM | GI50 (BT-549 breast) < 10 nM | GI50 (HCC-2998 colon) < 10 nM | GI50 (CCRF-CEM leukemia) < 10 nM | GI50 (SF-539 CNS) < 10 nM | GI50 (HCT-15 colon) < 10 nM | GI50 (SF-268 CNS) < 10 nM | GI50 (A498 renal) < 10 nM | GI50 (RPMI-8226 leukemia) < 10 nM | GI50 (OVCAR-4 ovarian) < 10 nM | GI50 (SNB-19 CNS) < 10 nM | GI50 (OVCAR-8 ovarian) < 10 nM
1360 nM: TGI (A549 NSCLC)
14.2 nM: TGI (KM12 colon)
132 nM: TGI (MOLT-4 leukemia) | TGI (SW-620 colon)
646 nM: TGI (SF-268 CNS)
113 nM: TGI (HCC-2998 colon)
10.9 nM: TGI (U251 CNS)
980 nM: TGI (IGROV1 ovarian)
106 nM: TGI (DU-145 prostate)
10.2 nM: TGI (HL-60(TB) leukemia)
10400 nM: TGI (HCT-15 colon)
> 100000 nM: TGI (NCI/ADR-RES ovarian) | TGI (SR leukemia) | TGI (CCRF-CEM leukemia)
< 10 nM: TGI (EKVX NSCLC) | TGI (SK-OV-3 ovarian) | TGI (T-47D breast) | TGI (NCI-H23 lung) | TGI (SK-MEL-5 melanoma) | TGI (SF-295 CNS) | TGI (TK-10 renal) | TGI (SK-MEL-28 melanoma) | TGI (HT29 colon) | TGI (NCI-H522 lung) | TGI (SK-MEL-2 melanoma) | TGI (PC-3 prostate) | TGI (UACC-257 melanoma) | TGI (BT-549 breast) | TGI (SF-539 CNS) | TGI (A498 renal) | TGI (RPMI-8226 leukemia)
175 nM: TGI (NCI-H460 lung)
15.4 nM: TGI (SN12C renal)
1050 nM: TGI (SNB-19 CNS)
14 nM: TGI (OVCAR-8 ovarian)
291 nM: TGI (LOX IMVI melanoma)
845 nM: TGI (OVCAR-4 ovarian)
